In patent US9040488B2, “Imino sugar derivatives demonstrate potent antiviral activity and reduced toxicity” (Baruch S. Blumberg Institute, priority 2008, dated 2015):
Like-named read-outs stand apart in the source and are kept apart here.

Legend:
[1] = tested on: West Nile virus (2002 Texas isolate); test: microbe, parasite or virus in culture; assay type: cell-based
BHK cells = test: Cytotoxicity (MTT) in BHK cells; assay type: cell-based
Method: (§1) Compound toxicity assay. Compound cytotoxicity was assessed by using an MTT based toxicity assay kit (Sigma, St. Louis, Mo.) as described elsewhere. Briefly, cells cultured under conditions identical to those used in the viral assay were incubated with various concentrations of the compound for 72 hours. MTT was added to the media to a final concentration of 0.5 mg/ml and was incubated for 3 hours at 37 C. After the culture media was removed, formazan crystals was dissolved by adding 150 ul of solubilization solution (10% Triton X-100, 0.1N HCl in anhydrous isopropanol) for 15-30 minutes. The absorbance of the dissolved formazan was measured spectrophotometrically at 570 nm with absorbance at 690 nm as background.

[2] = tested on: Dengue virus (DV) serotype 2, New Guinea C; test: microbe, parasite or virus in culture; assay type: cell-based
BVDV (NADL strain) [3] = assay type: cell-based, Bovine viral diarrhea virus
MDBK cells = test: Cytotoxicity (MTT) in MDBK cells; assay type: cell-based
Method: as §1

[4] = tested on: Junin virus (JUNV, Romero strain); assay type: cell-based
Ebola (Zaire strain) = assay type: cell-based, Ebola virus
HCV = HCV infection, intracellular HCV RNA level by real-time RT-PCR; assay type: cell-based, hepatitis C virus; conditions: for EC50: read-out: EC50 against HCV infection; for EC90: read-out: EC90 against HCV infection
Description: Another embodiment of the present invention is the use of imino sugar glucosidase inhibitors in the treatment of HCV. Imino sugar glucosidase inhibitors show equal or better efficacy than celgosivir.

[5] = tested on: Tacaribe virus (21573 strain); assay type: cell-based
[6] = Cytotoxicity (CC50) in the HCV infection test; assay type: cell-based; conditions: Table 3, HCV infection test
BVDV (NADL strain) [7] = conditions: tissue culture, test viruses such as BVDV and DV; cited from earlier work
[8] = in vivo, po, 100 mg/kg
[9] = Cytotoxicity (MTT) in BHK cells; assay type: cell-based; conditions: hamster; BHK cells (for Dengue and West Nile virus), 3 days treatment
Method: as §1

[10] = BHK cells (for Dengue and West Nile virus), 3 days treatment, read-out: CC50
[11] = Table 5, read-out: CC50 in BHK cells

For CCCCN1C[C@H](O)[C@@H](O)[C@H](O)[C@H]1CO [NBDNJ, N-butyl-DNJ, reference compound], the EC50 ([1]; read-out: West Nile EC50) was greater than 100 µM and the CC50 (BHK cells; [10]) was 20 to 100 µM.
For CC(C)[C@@H]1CC[C@@H](C)C[C@H]1OCCCCCCN1C[C@H](O)[C@@H](O)[C@H](O)[C@H]1CO [PBDNJ0801], the EC50 ([2]; read-out: DV EC50) was 0.1 µM, the EC90 ([2]; read-out: DV EC90) was 0.2 µM and the EC50 ([2]; read-out: Dengue EC50) was 0.1 µM. It also gave an EC90 ([2]; read-out: Dengue EC90) of 0.2 µM, an EC50 ([1]; read-out: WNV EC50) of 4.75 µM and an EC90 ([1]; read-out: WNV EC90) of 19 µM. For the same compound, the EC50 ([1]; read-out: West Nile EC50) was 4.75 µM, the EC90 ([1]; read-out: West Nile EC90) was 19 µM and the EC50 (BVDV (NADL strain) [3]) was 1.6 ± 1.2 µM. The EC90 (BVDV (NADL strain) [3]) was 14.8 ± 3.9 µM, the CC50 (MDBK cells) was 235 ± 21 µM and the CC50 (BHK cells; [10]) was 80 µM. The CC50 (BHK cells; [11]) was 70 µM.
Compound CCCCCCCCCN1C[C@H](O)[C@@H](O)[C@H](O)[C@H]1CO [NNDNJ, N-nonyl-DNJ, reference compound] has an EC50 [4] of 0.7 µM, an EC90 [4] greater than 100 µM and an EC50 ([2]; read-out: Dengue EC50) of 1 to 4 µM. For the same compound, the EC90 ([2]; read-out: Dengue EC90) was 3 to 10 µM, the EC50 ([1]; read-out: West Nile EC50) was 4 µM and the CC50 (vero cells) was 100 µM. For the same compound, the EC50 (BVDV (NADL strain) [3]) was 7.3 ± 0.4 µM, the EC90 (BVDV (NADL strain) [3]) was 71 ± 7.1 µM and the CC50 (MDBK cells) was 245 ± 134 µM. For the same compound, the EC50 (Ebola (Zaire strain)) was 12 µM, the EC90 (Ebola (Zaire strain)) was 85 µM and the EC50 (HCV) was 2.5 µM. For the same compound, the EC90 (HCV) was greater than 500 µM, the EC50 [5] was 3 µM and the EC90 [5] was 70 µM. For the same compound, the CC50 [6] was 280 µM, the “potency compared with DNJ or short alkyl side chain DNJ derivatives such as NBDNJ” value (BVDV (NADL strain) [7]) was 100 times and the CC50 (BHK cells; [10]) was 20 to 100 µM.
Compound CCCC(=O)O[C@H]1CN2CC[C@H](O)[C@@H]2[C@@H](O)[C@@H]1O [Celgosivir, celgosivir] has an EC50 (HCV; Hepatitis C virus) of 3.8 µM, an EC90 (HCV; Hepatitis C virus) of 100 µM and a CC50 [6] greater than 500 µM.
For Cc1ccc(C)c(OCCCCCCN2C[C@H](O)[C@@H](O)[C@H](O)[C@H]2CO)c1 [PBDNJ0803], the EC50 [4] was 0.5 µM, the EC90 [4] was 2 µM and the “antiviral activity against Junin virus infection” value [4] was “most potent”. The EC50 ([2]; read-out: DV EC50) was 0.1 µM, the EC90 ([2]; read-out: DV EC90) was 0.6 µM and the EC50 ([2]; read-out: Dengue EC50) was 0.1 µM. For the same compound, the EC90 ([2]; read-out: Dengue EC90) was 0.6 µM, the EC50 ([1]; read-out: WNV EC50) was 1.5 µM and the EC90 ([1]; read-out: WNV EC90) was 20 µM. For the same compound, the EC50 ([1]; read-out: West Nile EC50) was 1.5 µM, the EC90 ([1]; read-out: West Nile EC90) was 20 µM and the CC50 (vero cells) was 300 µM. It also gave an EC50 (BVDV (NADL strain) [3]) of 3.7 ± 3.8 µM, an EC90 (BVDV (NADL strain) [3]) of 29.2 ± 29 µM and a CC50 (MDBK cells) of 485 ± 21 µM. For the same compound, the EC50 [5] was 2 µM, the EC90 [5] was 75 µM and the CC50 (BHK cells; [10]) was 85 µM. For the same compound, the CC50 (BHK cells; [11]) was 75 µM.
In the case of CC(=O)O.CC1CCC(OCCCCCCN2C[C@H](O)[C@@H](O)[C@H](O)[C@H]2CO)CC1 (stereo partly shown) [CM-9-78], the EC50 [4] is reported as 2 µM, the EC90 [4] is reported as greater than 100 µM and the EC50 ([2]; read-out: DV EC50) is reported as 6.75 µM. For the same compound, the EC90 ([2]; read-out: DV EC90) was 13 µM, the EC50 ([2]; read-out: Dengue EC50) was 6.8 µM and the EC90 ([2]; read-out: Dengue EC90) was 13 µM. For the same compound, the CC50 (vero cells) was greater than 500 µM, the EC50 (BVDV (NADL strain) [3]) was 8.1 ± 3.4 µM and the EC90 (BVDV (NADL strain) [3]) was 59 ± 22 µM. It also gave a CC50 (MDBK cells) greater than 500 µM, an EC50 (Ebola (Zaire strain)) of 7.5 µM and an EC90 (Ebola (Zaire strain)) greater than 100 µM. It also gave an EC50 (HCV) of 5 µM, an EC90 (HCV) of 160 µM and an EC50 [5] of 10 µM. The EC90 [5] was greater than 100 µM, the CC50 [6] was greater than 500 µM and the plasma concentration [8] was “above 30 μM”. For the same compound, the CC50 (BHK cells; [10]) was greater than 100 µM and the CC50 (BHK cells; [11]) was greater than 40 µM.
With OC[C@@H]1[C@@H](O)[C@H](O)[C@@H](O)CN1CCCCCC1(O)CCCCC1 [OSL95-II, N-pentyl-(1-hydroxycyclohexyl)-DNJ, reference compound] the EC50 [4] was 0.75 µM, the EC90 [4] was 68 µM and the EC50 ([2]; read-out: DV EC50) was 4 µM. It also gave an EC90 ([2]; read-out: DV EC90) of 8.7 µM, an EC50 ([2]; read-out: Dengue EC50) of 4 µM and an EC90 ([2]; read-out: Dengue EC90) of 8.7 µM. The EC50 ([1]; read-out: WNV EC50) was 4.5 µM, the EC50 ([1]; read-out: West Nile EC50) was 4.5 µM and the CC50 (vero cells) was greater than 500 µM. For the same compound, the EC50 (BVDV (NADL strain) [3]) was 10.9 ± 2.7 µM, the EC90 (BVDV (NADL strain) [3]) was greater than 100 µM and the CC50 (MDBK cells) was greater than 500 µM. The EC50 (Ebola (Zaire strain)) was 0.6 µM, the EC90 (Ebola (Zaire strain)) was 8 µM and the EC50 (HCV) was 6 µM. It also gave an EC90 (HCV) of 125 µM, an EC50 [5] of 29 µM and an EC90 [5] greater than 100 µM. The CC50 [6] was greater than 500 µM, the CC50 (BHK cells; [10]) was greater than 100 µM and the CC50 (BHK cells; [11]) was greater than 100 µM.
Work on O[C@H]1[C@H](O)[C@@H](O)CN2CC[C@H](O)[C@H]12 [Castano., Castanospermin] yielded an EC50 (HCV) of 295 µM, an EC90 (HCV) greater than 500 µM and a CC50 [6] greater than 500 µM.
With C[C@@H]1CCCCC1OCCCCCCN1C[C@H](O)[C@@H](O)[C@H](O)[C@H]1CO (stereo partly shown) [PBDNJ0804] the EC50 [4] was 0.45 µM, the EC90 [4] was 0.9 µM and the “antiviral activity against Junin virus infection” value [4] was “most potent”. For the same compound, the EC50 ([2]; read-out: DV EC50) was 0.075 µM, the EC90 ([2]; read-out: DV EC90) was 0.6 µM and the EC50 ([2]; read-out: Dengue EC50) was 0.08 µM. It also gave an EC90 ([2]; read-out: Dengue EC90) of 0.6 µM, an EC50 ([1]; read-out: WNV EC50) of 3.5 µM and an EC90 ([1]; read-out: WNV EC90) of 33 µM. The EC50 ([1]; read-out: West Nile EC50) was 3.5 µM, the EC90 ([1]; read-out: West Nile EC90) was 33 µM and the CC50 (vero cells) was 500 µM. For the same compound, the EC50 (BVDV (NADL strain) [3]) was 3 ± 1.4 µM, the EC90 (BVDV (NADL strain) [3]) was 13 ± 1.7 µM and the CC50 (MDBK cells) was greater than 500 µM. It also gave an EC50 (Ebola (Zaire strain)) of 0.5 µM, an EC90 (Ebola (Zaire strain)) of 5 µM and an EC50 [5] of 1.5 µM. It also gave an EC90 [5] of 50 µM, a CC50 (BHK cells; [10]) of 65 µM and a CC50 (BHK cells; [11]) of 70 µM.
For CC(=O)O.OC[C@@H]1[C@@H](O)[C@H](O)[C@@H](O)CN1CCCCCCC1(O)CCCCC1 [CM-9-70], the EC50 (BVDV (NADL strain) [3]) was 18 µM, the EC90 (BVDV (NADL strain) [3]) was 82.5 µM and the anti-BVDV activity (BVDV (NADL strain) [3]) was “retains similar antiviral activity”. For the same compound, the CC50 (MDBK cells) was greater than 500 µM.
In the case of OC[C@H]1NC[C@H](O)[C@@H](O)[C@@H]1O [DNJ, deoxynojirimycin, reference compound], the EC50 ([2]; Dengue virus, BHK, read-out: Dengue EC50) is reported as 500 µM, the EC50 ([1]; West Nile virus, BHK, read-out: West Nile EC50) is reported as greater than 500 µM and the CC50 at 72 h [9] is reported as 20 to 100 µM.
